US11529319B2, “Methods and compositions for treating neurological conditions” (priority 2017, dated 2022)

System: Mef2c-het mice
Settings: mouse, in vivo
Source text: Mef2c heterozygous knockout (Mef2c-het) mice were created by crossing mice carrying the conventional exon 2-deleted allele of Mef2c (Mef2c^Δ2) with their WT littermates. All procedures for maintaining and using these mice were approved by the Institutional Animal Care and Use Committee (IACUC) at the Sanford Burnham Prebys Medical Discovery Institute. In this study, only male mice were used for the behavioral assays to insure uniformity (either with or without drug treatment). Chronic treatment with memantine, NitroSynapsin (both at 4.6 μmol/kg body weight) or vehicle (PBS) was administered via i.p. injection, twice a day for at least 3 months, starting at ˜2.5 weeks of age. This age was chosen because mice are still juveniles and thus treatment could begin in human at an equivalent stage. […]
For extracellular field recordings, concentric, bipolar tungsten electrodes were used to activate Schaffer collateral/commissural (SC) fibers in the hippocampal CA1 region. […] For baseline recordings, slices were stimulated at 0.033 Hz for 20 min at stimulation intensities of 30-40% of those used to elicit the largest measured fEPSP amplitude. […] Data were sampled at 5 kHz and analyzed using the Clampfit 10 program (Molecular Devices).
Synaptic activity was recorded from dentate gyrus (DG) granule neurons using the whole-cell voltage-clamp technique. […]

effect on EPSCs in WT mice: no effects
effect on LTP in WT mice: no effects
SMILES: CCC12CC3(N)CC(CC)(C1)CC(O[N+](=O)[O-])(C3)C2 [NitroSynapsin]
